Results on one substance are retold here after patent publication US20250263441A1 (Metanovas Biotech Inc., priority 2024, published 2025).

Values joined by “and” are separate entries in the source; they are usually repeats but may differ in a detail not shown here. Equal entries are not always repeated.

What all share (format): cell-based
One data set has as its system Candida albicans. Briefly: Minimum inhibitory concentration on Candida albicans (liquid culture). The conditions noted are these: 37° C., 24 to 48 hours. As to the method: Primary screening of liquid culture: the peptides in Examples 1 to 2 were dissolved in pure water to a concentration of 100 μg/mL. Using a micropipette, 10 μL of the peptides were added to a new 96-well plate in order from left to right, starting from the second compartment. Positive and negative controls were established for use. The 96-well plates were arranged vertically, and the peptide concentrations of the control groups were the same as those of the antimicrobial peptide. The control groups consisted of: pure water and bacteria, antimicrobial peptide FK13 and bacteria, and antimicrobial peptide HPA3NT3 and bacteria. An aseptic medium was used. The amino acid sequence of FK13 is […] (SEQ ID NO: 5), and the amino acid sequence of HPA3NT3 is […] (SEQ ID NO: 6).
(§1) If a 96-deep-well plate was used to culture bacteria, an additional 100 μL of sterile medium was added to all wells.
Candida albicans was inoculated in LB medium with normal oxygen concentration (21%) for 48 hours. […] clones were picked and incubated in LB medium at 37° C. with normal oxygen concentration (21%) for 48 hours. The bacterial concentration was measured and diluted to 107 CFU/mL with culture medium for use.
The prepared fresh bacterial suspension was diluted to 105 CFU/mL and added to the 96-well plate with 90 μL of the bacterial suspension per well, and incubated at 37° C. with normal oxygen concentration for 24 to 48 hours. The absorbance at 630 nm was measured with a microplate reader, and the degree of turbidity was observed by the naked eye.
(§2) (iv) Repetition of Operations: The Operations in (iii) were Repeated Twice, and the Decision to Perform a Third Repetition was Based on the Reproducibility of the Experiment.

For another data set, the system named is Propionibacterium acnes. Briefly: Minimum inhibitory concentration on Propionibacterium acnes (liquid culture). The settings on record: anaerobic, 37° C., 24 to 48 hours. The protocol: Primary screening of liquid culture: the peptides in Examples 1 to 2 were dissolved in pure water to a concentration of 100 μg/mL. Using a micropipette, 10 μL of the peptides were added to a new 96-well plate in order from left to right, starting from the second compartment. Positive and negative controls were established for use. The 96-well plates were arranged vertically, and the peptide concentrations in the control groups were the same as those of the antimicrobial peptides. The control groups included: pure water and bacteria, antimicrobial peptide FK13 and bacteria, antimicrobial peptide HPA3NT3 and bacteria, and ciprofloxacin and bacteria. An aseptic medium was used.
as §1
Propionibacterium acnes was inoculated on an anaerobic blood agar plate, placed in an anaerobic bag, and incubated anaerobically at 37° C. for 48 hours. Propionibacterium acnes clones were then picked and incubated anaerobically in liquid anaerobic broth medium at 37° C. for an additional 48 hours. The bacterial concentration was measured and diluted to 107 CFU/mL with culture medium.
The prepared fresh bacterial suspension was diluted to 105 CFU/mL and added to the 96-well plate with 90 μL of the bacterial suspension per well. The plate was incubated at 37° C. with a normal oxygen concentration for 24 to 48 hours (Propionibacterium acnes was cultured anaerobically at 37° C. for 24 to 48 hours in an anaerobic bag). The absorbance at 630 nm was measured using a microplate reader, and the degree of turbidity was observed by the naked eye.
as §2

Data set [1] deals with rabbit blood erythrocytes. In words: Measurement of hemolytic concentration. The settings on record: for Hemolysis rate: 37° C., 1 hour, replicate wells. As to the method:
4 mL of 2% rabbit blood erythrocytes were washed twice with 4 mL PBS and centrifuged at 3000 rpm for 5 minutes. The supernatant was discarded, and the rabbit blood erythrocytes were resuspended in 4 mL PBS. 160 μg of the peptides from Examples 1 to 2, FK13, and HPA3NT3 were independently dissolved in 1 mL PBS buffer to prepare the peptide mother solutions with a concentration of 160 μg/mL. Subsequently, the peptide mother solutions were diluted with PBS buffer to concentrations of 80 μg/mL, 64 μg/mL, 32 μg/mL, 16 μg/mL, and 8 μg/mL. 100 μL of the 2% rabbit blood erythrocytes and 100 μL of different concentrations of peptides (80 μg/mL, 64 μg/mL, 32 μg/mL, 16 μg/mL, 8 μg/mL) were added to each well of a 96-well plate. In the negative control, 100 μL of PBS buffer was added, while in the positive control, 100 μL of 0.1% (w/v) Triton X-100 was added. Three replicate wells were set up for each group and incubated at 37° C. for 1 hour. The 96-well plate was then removed, centrifuged at 3000 rpm for 5 minutes, and 100 μL of supernatant was aspirated and transferred to a new 96-well plate. The absorbance was measured at 540 nm using an enzyme meter. Hemolysis rate (%)=((Absorbancesample−Absorbancenegative)/(Absorbancepositive−Absorbancenegative))*100%.

In data set [2] the test system is Candida albicans (ATCC: 14053). Briefly: Inhibitory effect of AMP-33 on Candida albicans (viability, OD 630 nm). The settings on record: 8 μg/mL, 28 hours; repeated experiments. The protocol: (1) Candida albicans was inoculated into YM liquid medium and cultured overnight under aerobic conditions at 28° C. and […] on a shaker.
(2) 200 μL of YM liquid culture medium and a predetermined concentration of peptide AMP-33 were added to a 96-deep-well plate. Then, 10 μL of the Candida albicans solution was inoculated (mixed well before inoculation).
(3) After incubating at […] for 28 hours on a shaking table at 28° C., the turbidity of the bacterial solution was observed. A volume of 100 μL of the solution was taken, and the OD at 630 nm was measured using an enzyme-linked immunosorbent assay (ELISA) reader (after multiple blows and mixing).
[formula] • OD Measurement: OD value of the test peptide. • ODneg: OD value with no bacterial inoculation, containing only […] medium. • ODpos: OD value with bacterial inoculation and without inhibitors.

In data set [3] the test system is Mouse macrophage RAW264.7 cells. Briefly: RT-qPCR of inflammation markers in LPS-stimulated RAW264.7 cells. The settings on record: LPS 10 ng/ml, 24 hours; repeated experiments. The protocol:
(1) Mouse macrophage RAW264.7 cells were cultured in DMEM supplemented with 10% fetal bovine serum (FBS) and 1% penicillin and streptomycin (P/S) at 37° C. in a 5% CO2 incubator.
(2) 5×10^4 mouse-derived RAW264.7 macrophages were placed in 12-well cell culture plates and cultured for 24 hours. Then, 20 μL of PBS (negative control), Dexamethasone (positive control), and the test peptide were added to the wells for incubation for 2 hours. Afterward, 10 ng/ml of lipopolysaccharide (LPS) was mixed with RAW264.7 cells and incubated for 24 hours.
(4) The cells were collected, and total RNA was isolated and extracted, reverse transcribed, and subjected to RT-qPCR to detect inflammation markers, including TNF-α, IL-1β, IL-6/10, CCL2, IFN-γ, iNOS, and GAPDH.
3. After treating RAW264.7 cells with AMP-33, RT-qPCR was used to detect the levels of IL-6 and IL-1ß mRNA.
In general terms: In qPCR the cycle at which signal appears reflects the starting amount.

Consider “Example 2: LSKWLKKLGKLLAG (designated as AMP33)”, for which the “Minimum inhibitory concentration on Candida albicans” value in the data set with Candida albicans is 25 µg/mL. Also, in the data set with Propionibacterium acnes, the “Minimum inhibitory concentration on Propionibacterium acnes” value was determined as 4 µg/mL. Also, the Hemolysis rate in data set [1] (8 μg/mL) was 3.6% and 7.9% and 23%. For the same substance, the Hemolysis rate in data set [1] (16 μg/mL) was 2.6% and 1.7% and −0.4%. In data set [1] (32 μg/mL), the Hemolysis rate was 0.6% and 4.6% and 3.3%. Moreover, the Hemolysis rate in data set [1] (64 μg/mL) was 0.7% and −0.8% and −2.0%. The Hemolysis rate in data set [1] (80 μg/mL) is 10.1% (2×) and 11.1%. Further, in data set [1] (rabbit erythrocytes), the Minimum hemolytic concentration came to 64.0 µg/mL. Besides, the “Viability of Candida albicans” value in data set [2] was 53.84 and 70.73 and 66.17. Further, in data set [3], the “CCL-2 mRNA level” value is 0.51 and 0.52 and 0.58; the “COX-2 mRNA level” value was 0.71 and 0.58 and 1.16; the “IL-1β mRNA level” value is 0.40 and 0.45 and 0.77; the “IL-6 mRNA level” value was 0.96 and 0.49 and 0.95. Also, in data set [3], the “IL-10 mRNA level” value was 1.80 and 2.50 and 1.32.
